Measurements published in the supplement of paper PMC10307832.

What was measured:
Experiment in all cases: relative viability (nuclei count vs DMSO), 5 days (fraction); higher = more cells survive
[1] = compound: Cn1cc(-c2cnn3c(N)c(Br)c([C@@H]4CCCNC4)nc23)cn1 + NC(=O)Nc1cc(-c2cccc(F)c2)sc1C(=O)N[C@H]1CCCNC1 [AZD7762] (partner 0.2 µM)
Method in brief: (§1)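 Lung cancer cell lines were pin-tool dosed in 1536-well plates on the day after seeding, with either a lone drug or a fixed anchor-drug dose plus five library-drug doses (not always all listed) in √10 steps. Nuclei were counted on 4× images after 5 days. Relative viability is the ratio of treated-well to vehicle-well nuclei counts, with each value a median of duplicate plates.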

[2] = compound: Cn1cc(-c2cnn3c(N)c(Br)c([C@@H]4CCCNC4)nc23)cn1 + CC(C)C[C@H](NC(=O)[C@H](Cc1ccccc1)NC(=O)c1cnccn1)B(O)O [Bortezomib] (partner 0.002 µM)
Method in brief: as §1

[3] = compound: Cn1cc(-c2cnn3c(N)c(Br)c([C@@H]4CCCNC4)nc23)cn1 + CS(=O)(=O)N1CCN(Cc2cc3nc(-c4cccc5[nH]ncc45)nc(N4CCOCC4)c3s2)CC1 [Pictilisib] (partner 1 µM)
Method in brief: as §1

[4] = compound: Cn1cc(-c2cnn3c(N)c(Br)c([C@@H]4CCCNC4)nc23)cn1 + C[C@]1(O)C[C@@H](c2nc(-c3ccc4ccc(-c5ccccc5)nc4c3)c3c(N)nccn32)C1 [Linsitinib] (partner 1 µM)
Method in brief: as §1

[5] = compound: Cn1cc(-c2cnn3c(N)c(Br)c([C@@H]4CCCNC4)nc23)cn1 + O=C(c1cc(Cc2n[nH]c(=O)c3ccccc23)ccc1F)N1CCN(C(=O)C2CC2)CC1 [Olaparib] (partner 8 µM)
Method in brief: as §1

[6] = compound: Cn1cc(-c2cnn3c(N)c(Br)c([C@@H]4CCCNC4)nc23)cn1 + C[C@@H](Oc1cc(-c2cnn(C3CCNCC3)c2)cnc1N)c1c(Cl)ccc(F)c1Cl [Crizotinib] (partner 1 µM)
Method in brief: as §1

[7] = compound: Cn1cc(-c2cnn3c(N)c(Br)c([C@@H]4CCCNC4)nc23)cn1 + CC1(C)CCC(c2ccc(Cl)cc2)=C(CN2CCN(c3ccc(C(=O)NS(=O)(=O)c4ccc(N[C@H](CCN5CCOCC5)CSc5ccccc5)c(S(=O)(=O)C(F)(F)F)c4)cc3)CC2)C1 [Navitoclax] (partner 0.5 µM)
Method in brief: as §1

[8] = compound: Cn1cc(-c2cnn3c(N)c(Br)c([C@@H]4CCCNC4)nc23)cn1 + COc1cc2c(Oc3ccc(NC(=O)C4(C(=O)Nc5ccc(F)cc5)CC4)cc3F)ccnc2cc1OCCCN1CCOCC1 [Foretinib] (partner 0.25 µM)
Method in brief: as §1

[9] = compound: Cn1cc(-c2cnn3c(N)c(Br)c([C@@H]4CCCNC4)nc23)cn1 + Cc1nc(NC(=O)N2CCC[C@H]2C(N)=O)sc1-c1ccnc(C(C)(C)C(F)(F)F)c1 [Alpelisib] (partner 2 µM)
Method in brief: as §1

[10] = compound: Cn1cc(-c2cnn3c(N)c(Br)c([C@@H]4CCCNC4)nc23)cn1 + CS(=O)(=O)CCNCc1ccc(-c2ccc3ncnc(Nc4ccc(OCc5cccc(F)c5)c(Cl)c4)c3c2)o1 [Lapatinib] (partner 2 µM)
Method in brief: as §1

[11] = compound: Cn1cc(-c2cnn3c(N)c(Br)c([C@@H]4CCCNC4)nc23)cn1
Method in brief: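 Viability was defined as treated-well nuclei divided by vehicle-well nuclei, with the median taken over replicate plates. Cells from lung cancer lines sat overnight at 37 °C in 1536-well plates, received five √10-spaced library-drug doses by pinning on vehicle-anchored plates, and grew 5 days without medium change before one-step fixation, permeabilisation and Hoechst staining, 4× imaging and MetaXpress nuclear counts. Only plates with control CV under 25% and at least one doubling were kept.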

NCI-H1703
relative viability ([1]; first compound 0.05 µM): 0.0942
relative viability ([1]; first compound 0.1581 µM): 0.119
relative viability ([1]; first compound 0.5 µM): 0.139
relative viability ([1]; first compound 1.581 µM): 0.102
relative viability ([1]; first compound 5 µM): 0.098
relative viability ([2]; first compound 0.05 µM): 0.231
relative viability ([2]; first compound 0.1581 µM): 0.261
relative viability ([2]; first compound 0.5 µM): 0.19
relative viability ([2]; first compound 1.581 µM): 0.132
relative viability ([2]; first compound 5 µM): 0.138
relative viability ([3]; first compound 0.05 µM): 0.237
relative viability ([3]; first compound 0.1581 µM): 0.183
relative viability ([3]; first compound 0.5 µM): 0.178
relative viability ([3]; first compound 1.581 µM): 0.156
relative viability ([3]; first compound 5 µM): 0.155
relative viability ([4]; first compound 0.05 µM): 0.72
relative viability ([4]; first compound 0.1581 µM): 0.586
relative viability ([4]; first compound 0.5 µM): 0.539
relative viability ([4]; first compound 1.581 µM): 0.336
relative viability ([4]; first compound 5 µM): 0.119
relative viability ([5]; first compound 0.05 µM): 0.416
relative viability ([5]; first compound 0.1581 µM): 0.364
relative viability ([5]; first compound 0.5 µM): 0.364
relative viability ([5]; first compound 1.581 µM): 0.233
relative viability ([5]; first compound 5 µM): 0.123
relative viability ([6]; first compound 0.05 µM): 0.671
relative viability ([6]; first compound 0.1581 µM): 0.363
relative viability ([6]; first compound 0.5 µM): 0.325
relative viability ([6]; first compound 1.581 µM): 0.18
relative viability ([6]; first compound 5 µM): 0.134
relative viability ([7]; first compound 0.05 µM): 1.08
relative viability ([7]; first compound 0.1581 µM): 0.441
relative viability ([7]; first compound 0.5 µM): 0.309
relative viability ([7]; first compound 1.581 µM): 0.147
relative viability ([7]; first compound 5 µM): 0.122
relative viability ([8]; first compound 0.05 µM): 0.334
relative viability ([8]; first compound 0.1581 µM): 0.288
relative viability ([8]; first compound 0.5 µM): 0.337
relative viability ([8]; first compound 1.581 µM): 0.196
relative viability ([8]; first compound 5 µM): 0.178
relative viability ([9]; first compound 0.05 µM): 0.374
relative viability ([9]; first compound 0.1581 µM): 0.318
relative viability ([9]; first compound 0.5 µM): 0.259
relative viability ([9]; first compound 1.581 µM): 0.161
relative viability ([9]; first compound 5 µM): 0.139
relative viability ([10]; first compound 0.05 µM): 1.18
relative viability ([10]; first compound 0.1581 µM): 0.454
relative viability ([10]; first compound 0.5 µM): 0.481
relative viability ([10]; first compound 1.581 µM): 0.205
relative viability ([10]; first compound 5 µM): 0.124
relative viability ([11]; 0.05 µM): 0.925
relative viability ([11]; 0.1581 µM): 0.664
relative viability ([11]; 0.5 µM): 0.529
relative viability ([11]; 1.581 µM): 0.347
relative viability ([11]; 5 µM): 0.159
